# Measurements published in PubChem BioAssay (NCI).
#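 Exposure lasted 48 hours, with cells grown in 96-well plates and compounds tested at five concentrations. The concentration for 50% growth inhibition is given as GI50. TGI: total growth inhibition.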
# Experiments:
# Test in all cases: NCI tumour cell line growth inhibition, 48 h
# A549 NSCLC = test system: A549 NSCLC
# HCT-15 colon = test system: HCT-15 colon
# SK-OV-3 ovarian = test system: SK-OV-3 ovarian
# OVCAR-3 ovarian = test system: OVCAR-3 ovarian
# OVCAR-5 ovarian = test system: OVCAR-5 ovarian
# T-47D breast = test system: T-47D breast
# OVCAR-8 ovarian = test system: OVCAR-8 ovarian
# MALME-3M melanoma = test system: MALME-3M melanoma
# MCF7 breast = test system: MCF7 breast
# SNB-75 CNS = test system: SNB-75 CNS
# MOLT-4 leukemia = test system: MOLT-4 leukemia
# K-562 leukemia = test system: K-562 leukemia
# MDA-MB-231 breast = test system: MDA-MB-231 breast
# A498 renal = test system: A498 renal
# ACHN renal = test system: ACHN renal
# SK-MEL-5 melanoma = test system: SK-MEL-5 melanoma
# M14 melanoma = test system: M14 melanoma
# COLO 205 colon = test system: COLO 205 colon
# SF-539 CNS = test system: SF-539 CNS
# SW-620 colon = test system: SW-620 colon
# NCI-H226 lung = test system: NCI-H226 lung
# PC-3 prostate = test system: PC-3 prostate
# NCI-H460 lung = test system: NCI-H460 lung
# RXF 393 renal = test system: RXF 393 renal
# SNB-19 CNS = test system: SNB-19 CNS
# U251 CNS = test system: U251 CNS
# HS 578T breast = test system: HS 578T breast
# RPMI-8226 leukemia = test system: RPMI-8226 leukemia
# SN12C renal = test system: SN12C renal
# SR leukemia = test system: SR leukemia
# HCT-116 colon = test system: HCT-116 colon
# HOP-92 NSCLC = test system: HOP-92 NSCLC
# CCRF-CEM leukemia = test system: CCRF-CEM leukemia
# MDA-MB-435 = test system: MDA-MB-435
# 786-0 renal = test system: 786-0 renal
# OVCAR-4 ovarian = test system: OVCAR-4 ovarian
# HT29 colon = test system: HT29 colon
# IGROV1 ovarian = test system: IGROV1 ovarian
# UACC-257 melanoma = test system: UACC-257 melanoma
# SF-268 CNS = test system: SF-268 CNS
# UO-31 renal = test system: UO-31 renal
# DU-145 prostate = test system: DU-145 prostate
# LOX IMVI melanoma = test system: LOX IMVI melanoma
# EKVX NSCLC = test system: EKVX NSCLC
# TK-10 renal = test system: TK-10 renal
# HCC-2998 colon = test system: HCC-2998 colon
# NCI-H23 lung = test system: NCI-H23 lung
# SK-MEL-28 melanoma = test system: SK-MEL-28 melanoma
# BT-549 breast = test system: BT-549 breast
# SF-295 CNS = test system: SF-295 CNS
# NCI/ADR-RES ovarian = test system: NCI/ADR-RES ovarian
# SK-MEL-2 melanoma = test system: SK-MEL-2 melanoma
# HOP-62 NSCLC = test system: HOP-62 NSCLC
# MDA-MB-468 breast = test system: MDA-MB-468 breast
# KM12 colon = test system: KM12 colon
# NCI-H522 lung = test system: NCI-H522 lung
# UACC-62 melanoma = test system: UACC-62 melanoma
# CAKI-1 renal = test system: CAKI-1 renal
# HL-60(TB) leukemia = test system: HL-60(TB) leukemia
smiles,measurement,setting,value
O=C(COc1ccc(NC(=O)Nc2ccc(Cl)c(Cl)c2)cc1)N=Nc1c(O)[nH]c2ccccc12,GI50,A549 NSCLC,2.97 µM
same,TGI,A549 NSCLC,8.33 µM
same,GI50,HCT-15 colon,46.8 µM
same,TGI,HCT-15 colon,> 100 µM
same,GI50,SK-OV-3 ovarian,3.28 µM
same,TGI,SK-OV-3 ovarian,11.8 µM
same,GI50,OVCAR-3 ovarian,2.02 µM
same,TGI,OVCAR-3 ovarian,4.67 µM
same,GI50,OVCAR-5 ovarian,3.39 µM
same,TGI,OVCAR-5 ovarian,13.7 µM
same,GI50,T-47D breast,10.6 µM
same,TGI,T-47D breast,25.2 µM
same,GI50,OVCAR-8 ovarian,2.1 µM
same,TGI,OVCAR-8 ovarian,4.84 µM
same,GI50,MALME-3M melanoma,1.83 µM
same,TGI,MALME-3M melanoma,3.76 µM
same,GI50,MCF7 breast,2.49 µM
same,TGI,MCF7 breast,7.48 µM
same,GI50,SNB-75 CNS,1.65 µM
same,TGI,SNB-75 CNS,5.09 µM
same,GI50,MOLT-4 leukemia,3.67 µM
same,TGI,MOLT-4 leukemia,19.8 µM
same,GI50,K-562 leukemia,3.46 µM
same,TGI,K-562 leukemia,17.9 µM
same,GI50,MDA-MB-231 breast,1.96 µM
same,TGI,MDA-MB-231 breast,4.7 µM
same,GI50,A498 renal,10.5 µM
same,TGI,A498 renal,23.2 µM
same,GI50,ACHN renal,7.78 µM
same,TGI,ACHN renal,36.2 µM
same,GI50,SK-MEL-5 melanoma,4.73 µM
same,TGI,SK-MEL-5 melanoma,16.7 µM
same,GI50,M14 melanoma,2.63 µM
same,TGI,M14 melanoma,8.58 µM
same,GI50,COLO 205 colon,2.19 µM
same,TGI,COLO 205 colon,5.18 µM
same,GI50,SF-539 CNS,1.97 µM
same,TGI,SF-539 CNS,4.38 µM
same,GI50,SW-620 colon,1.72 µM
same,TGI,SW-620 colon,3.79 µM
same,GI50,NCI-H226 lung,2.76 µM
same,TGI,NCI-H226 lung,10.8 µM
same,GI50,PC-3 prostate,2.01 µM
same,TGI,PC-3 prostate,6.24 µM
same,GI50,NCI-H460 lung,1.84 µM
same,TGI,NCI-H460 lung,3.99 µM
same,GI50,RXF 393 renal,2 µM
same,TGI,RXF 393 renal,7.65 µM
same,GI50,SNB-19 CNS,2.89 µM
same,TGI,SNB-19 CNS,10.5 µM
same,GI50,U251 CNS,1.77 µM
same,TGI,U251 CNS,3.32 µM
same,GI50,HS 578T breast,3.06 µM
same,TGI,HS 578T breast,12 µM
same,GI50,RPMI-8226 leukemia,5.32 µM
same,TGI,RPMI-8226 leukemia,29.8 µM
same,GI50,SN12C renal,1.77 µM
same,TGI,SN12C renal,3.77 µM
same,GI50,SR leukemia,4.65 µM
same,TGI,SR leukemia,32.9 µM
same,GI50,HCT-116 colon,3.22 µM
same,TGI,HCT-116 colon,10.3 µM
same,GI50,HOP-92 NSCLC,2.58 µM
same,TGI,HOP-92 NSCLC,9.45 µM
same,GI50,CCRF-CEM leukemia,3.97 µM
same,TGI,CCRF-CEM leukemia,20.8 µM
same,GI50,MDA-MB-435,2.05 µM
same,TGI,MDA-MB-435,4.8 µM
same,GI50,786-0 renal,2.69 µM
same,TGI,786-0 renal,6.27 µM
same,GI50,OVCAR-4 ovarian,2.47 µM
same,TGI,OVCAR-4 ovarian,8.09 µM
same,GI50,HT29 colon,1.97 µM
same,TGI,HT29 colon,4 µM
same,GI50,IGROV1 ovarian,4.59 µM
same,TGI,IGROV1 ovarian,17.4 µM
same,GI50,UACC-257 melanoma,2.96 µM
same,TGI,UACC-257 melanoma,10 µM
same,GI50,SF-268 CNS,2.44 µM
same,TGI,SF-268 CNS,6.14 µM
same,GI50,UO-31 renal,39 µM
same,TGI,UO-31 renal,> 100 µM
same,GI50,DU-145 prostate,3.29 µM
same,TGI,DU-145 prostate,18.7 µM
same,GI50,LOX IMVI melanoma,2.79 µM
same,TGI,LOX IMVI melanoma,9.02 µM
same,GI50,EKVX NSCLC,6.11 µM
same,TGI,EKVX NSCLC,28 µM
same,GI50,TK-10 renal,10.6 µM
same,TGI,TK-10 renal,28.6 µM
same,GI50,HCC-2998 colon,5.31 µM
same,TGI,HCC-2998 colon,18.1 µM
same,GI50,NCI-H23 lung,2.91 µM
same,TGI,NCI-H23 lung,8.31 µM
same,GI50,SK-MEL-28 melanoma,2.12 µM
same,TGI,SK-MEL-28 melanoma,5.07 µM
same,GI50,BT-549 breast,13.7 µM
same,TGI,BT-549 breast,29.7 µM
same,GI50,SF-295 CNS,2.23 µM
same,TGI,SF-295 CNS,5.45 µM
same,GI50,NCI/ADR-RES ovarian,> 100 µM
same,TGI,NCI/ADR-RES ovarian,> 100 µM
same,GI50,SK-MEL-2 melanoma,12.1 µM
same,TGI,SK-MEL-2 melanoma,25.9 µM
same,GI50,HOP-62 NSCLC,2.34 µM
same,TGI,HOP-62 NSCLC,5.82 µM
same,GI50,MDA-MB-468 breast,1.8 µM
same,TGI,MDA-MB-468 breast,3.8 µM
same,GI50,KM12 colon,2.87 µM
same,TGI,KM12 colon,11.2 µM
same,GI50,NCI-H522 lung,2.49 µM
same,TGI,NCI-H522 lung,8.06 µM
same,GI50,UACC-62 melanoma,3.55 µM
same,TGI,UACC-62 melanoma,13.8 µM
same,GI50,CAKI-1 renal,4.69 µM
same,TGI,CAKI-1 renal,17.1 µM
same,GI50,HL-60(TB) leukemia,20.8 µM
same,TGI,HL-60(TB) leukemia,71.6 µM
